Legend:
Type in all cases: in vivo
[1] = tested on: Alopecurus myosuroides (ALOMY); assay: Pre-emergence herbicidal glasshouse test on Alopecurus myosuroides; settings: pre-emergence; 1000 g/h; evaluated after 13 days
How it was run: (§1)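 Plants sprayed 1 day (pre-emergence) or 8 days (post-emergence) after sowing with compound at 1000 g/h in acetone/water 50:50 with 0.5% Tween 20; glasshouse 24/16° C, 14 h light, 65% humidity. Damage assessed after 13 days, scored 1–5 (5 = 80-100%, 1 = 0-19%).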

Setaria faberi (SETFA) [2] = assay: Pre-emergence herbicidal glasshouse test on Setaria faberi; settings: pre-emergence; 1000 g/h; evaluated after 13 days
How it was run: as §1

[3] = tested on: Echinochloa crus-galli (ECHCG); assay: Pre-emergence herbicidal glasshouse test on Echinochloa crus-galli; settings: pre-emergence; 1000 g/h; evaluated after 13 days
How it was run: as §1

Solanum nigrum (SOLNI) [4] = assay: Pre-emergence herbicidal glasshouse test on Solanum nigrum; settings: pre-emergence; 1000 g/h; evaluated after 13 days
How it was run: as §1

[5] = tested on: Amaranthus retoflexus (AMARE); assay: Pre-emergence herbicidal glasshouse test on Amaranthus retoflexus; settings: pre-emergence; 1000 g/h; evaluated after 13 days
How it was run: as §1

[6] = tested on: Ipomoea hederacea (IPOHE); assay: Pre-emergence herbicidal glasshouse test on Ipomoea hederacea; settings: pre-emergence; 1000 g/h; evaluated after 13 days
How it was run: as §1

[7] = tested on: Alopecurus myosuroides (ALOMY); assay: Post-emergence herbicidal glasshouse test on Alopecurus myosuroides; settings: post-emergence; 1000 g/h; evaluated after 13 days
How it was run: as §1

Setaria faberi (SETFA) [8] = assay: Post-emergence herbicidal glasshouse test on Setaria faberi; settings: post-emergence; 1000 g/h; evaluated after 13 days
How it was run: as §1

[9] = tested on: Echinochloa crus-galli (ECHCG); assay: Post-emergence herbicidal glasshouse test on Echinochloa crus-galli; settings: post-emergence; 1000 g/h; evaluated after 13 days
How it was run: as §1

Solanum nigrum (SOLNI) [10] = assay: Post-emergence herbicidal glasshouse test on Solanum nigrum; settings: post-emergence; 1000 g/h; evaluated after 13 days
How it was run: as §1

[11] = tested on: Amaranthus retoflexus (AMARE); assay: Post-emergence herbicidal glasshouse test on Amaranthus retoflexus; settings: post-emergence; 1000 g/h; evaluated after 13 days
How it was run: as §1

[12] = tested on: Ipomoea hederacea (IPOHE); assay: Post-emergence herbicidal glasshouse test on Ipomoea hederacea; settings: post-emergence; 1000 g/h; evaluated after 13 days
How it was run: as §1

SMILES	PRE Application ALOMY herbicidal damage (five point scale) [1]	PRE Application SETFA herbicidal damage (five point scale) (Setaria faberi (SETFA) [2])	PRE Application ECHCG herbicidal damage (five point scale) [3]	PRE Application SOLNI herbicidal damage (five point scale) (Solanum nigrum (SOLNI) [4])	PRE Application AMARE herbicidal damage (five point scale) [5]	PRE Application IPOHE herbicidal damage (five point scale) [6]	POST Application ALOMY herbicidal damage (five point scale) [7]	POST Application SETFA herbicidal damage (five point scale) (Setaria faberi (SETFA) [8])	POST Application ECHCG herbicidal damage (five point scale) [9]	POST Application SOLNI herbicidal damage (five point scale) (Solanum nigrum (SOLNI) [10])	POST Application AMARE herbicidal damage (five point scale) [11]	POST Application IPOHE herbicidal damage (five point scale) [12]
C=CCn1cccc(-c2cnn(C)c(=O)c2O)c1=O [Compound 9.002]	1 (1=0-19% damage)	1 (1=0-19% damage)	1 (1=0-19% damage)	1 (1=0-19% damage)	1 (1=0-19% damage)	1 (1=0-19% damage)	1 (1=0-19% damage)	2 (2=20-39% damage)	2 (2=20-39% damage)	5 (5=80-100% damage)	4 (4=60-79% damage)	2 (2=20-39% damage)
Cn1cccc(-c2cnn(C)c(=O)c2O)c1=O [Compound 9.003]	1 (1=0-19% damage)	1 (1=0-19% damage)	1 (1=0-19% damage)	1 (1=0-19% damage)	2 (2=20-39% damage)	1 (1=0-19% damage)	1 (1=0-19% damage)	2 (2=20-39% damage)	1 (1=0-19% damage)	4 (4=60-79% damage)	4 (4=60-79% damage)	2 (2=20-39% damage)
COc1ccc(Cn2cccc(-c3cnn(C)c(=O)c3O)c2=O)cc1 [Compound 9.004]	1 (1=0-19% damage)	1 (1=0-19% damage)	1 (1=0-19% damage)	1 (1=0-19% damage)	1 (1=0-19% damage)	1 (1=0-19% damage)	1 (1=0-19% damage)	1 (1=0-19% damage)	1 (1=0-19% damage)	4 (4=60-79% damage)	4 (4=60-79% damage)	3 (3=40-59% damage)
Cn1ncc(-c2cccn(CC(F)(F)F)c2=O)c(O)c1=O [Compound 9.005]	1 (1=0-19% damage)	1 (1=0-19% damage)	1 (1=0-19% damage)	1 (1=0-19% damage)	1 (1=0-19% damage)	1 (1=0-19% damage)	1 (1=0-19% damage)	1 (1=0-19% damage)	1 (1=0-19% damage)	4 (4=60-79% damage)	2 (2=20-39% damage)	2 (2=20-39% damage)
Cn1ncc(-c2cccn(CC3CC3)c2=O)c(O)c1=O [Compound 9.006]	1 (1=0-19% damage)	1 (1=0-19% damage)	1 (1=0-19% damage)	1 (1=0-19% damage)	1 (1=0-19% damage)	1 (1=0-19% damage)	2 (2=20-39% damage)	2 (2=20-39% damage)	1 (1=0-19% damage)	3 (3=40-59% damage)	3 (3=40-59% damage)	2 (2=20-39% damage)
C=C(C)Cn1cccc(-c2cnn(C)c(=O)c2O)c1=O [Compound 9.007]	1 (1=0-19% damage)	1 (1=0-19% damage)	1 (1=0-19% damage)	1 (1=0-19% damage)	1 (1=0-19% damage)	1 (1=0-19% damage)	1 (1=0-19% damage)	2 (2=20-39% damage)	1 (1=0-19% damage)	4 (4=60-79% damage)	3 (3=40-59% damage)	2 (2=20-39% damage)
Cn1ncc(-c2cccn(Cc3ccccc3)c2=O)c(O)c1=O [Compound 9.008]	1 (1=0-19% damage)	1 (1=0-19% damage)	4 (4=60-79% damage)	2 (2=20-39% damage)	2 (2=20-39% damage)	1 (1=0-19% damage)	1 (1=0-19% damage)	1 (1=0-19% damage)	1 (1=0-19% damage)	3 (3=40-59% damage)	3 (3=40-59% damage)	1 (1=0-19% damage)
COCCn1cccc(-c2cnn(C)c(=O)c2O)c1=O [Compound 9.009]	1 (1=0-19% damage)	1 (1=0-19% damage)	1 (1=0-19% damage)	1 (1=0-19% damage)	1 (1=0-19% damage)	1 (1=0-19% damage)	2 (2=20-39% damage)	3 (3=40-59% damage)	3 (3=40-59% damage)	5 (5=80-100% damage)	4 (4=60-79% damage)	3 (3=40-59% damage)
Cn1ncc(-c2ccc(C(F)(F)F)n(C)c2=O)c(O)c1=O [Compound 9.010]	1 (1=0-19% damage)	1 (1=0-19% damage)	5 (5=80-100% damage)	1 (1=0-19% damage)	5 (5=80-100% damage)	1 (1=0-19% damage)	2 (2=20-39% damage)	2 (2=20-39% damage)	4 (4=60-79% damage)	5 (5=80-100% damage)	5 (5=80-100% damage)	4 (4=60-79% damage)
C=CCn1c(C(F)(F)F)ccc(-c2cnn(C)c(=O)c2O)c1=O [Compound 9.011]	2 (2=20-39% damage)	3 (3=40-59% damage)	5 (5=80-100% damage)	1 (1=0-19% damage)	4 (4=60-79% damage)	1 (1=0-19% damage)	4 (4=60-79% damage)	5 (5=80-100% damage)	5 (5=80-100% damage)	5 (5=80-100% damage)	5 (5=80-100% damage)	4 (4=60-79% damage)
COc1ccc(-n2cccc(-c3cnn(C)c(=O)c3O)c2=O)cc1 [Compound 9.016]	2 (2=20-39% damage)	1 (1=0-19% damage)	1 (1=0-19% damage)	1 (1=0-19% damage)	1 (1=0-19% damage)	1 (1=0-19% damage)	3 (3=40-59% damage)	3 (3=40-59% damage)	4 (4=60-79% damage)	5 (5=80-100% damage)	5 (5=80-100% damage)	2 (2=20-39% damage)
